Laboratory results published in PubChem BioAssay (NCI).
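Briefly, cells in 96-well plates were exposed to five compound concentrations for 48 h, and endpoints were estimated by linear interpolation. Abbreviation: GI50, concentration required for 50% inhibition of growth. Definition used: TGI = concentration required for complete inhibition of growth.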

What was measured:
Assay in all cases: NCI tumour cell line growth inhibition, 48 h
ACHN renal = test system: ACHN renal
UO-31 renal = test system: UO-31 renal
HOP-62 NSCLC = test system: HOP-62 NSCLC
KM12 colon = test system: KM12 colon
CCRF-CEM leukemia = test system: CCRF-CEM leukemia
OVCAR-8 ovarian = test system: OVCAR-8 ovarian
DU-145 prostate = test system: DU-145 prostate
SK-MEL-2 melanoma = test system: SK-MEL-2 melanoma
MCF7 breast = test system: MCF7 breast
MDA-MB-231 breast = test system: MDA-MB-231 breast

Compound	GI50 (ACHN renal)	TGI (ACHN renal)	GI50 (UO-31 renal)	TGI (UO-31 renal)	GI50 (HOP-62 NSCLC)	TGI (HOP-62 NSCLC)	GI50 (KM12 colon)	TGI (KM12 colon)	GI50 (CCRF-CEM leukemia)	TGI (CCRF-CEM leukemia)	GI50 (OVCAR-8 ovarian)	TGI (OVCAR-8 ovarian)	GI50 (DU-145 prostate)	TGI (DU-145 prostate)	GI50 (SK-MEL-2 melanoma)	TGI (SK-MEL-2 melanoma)	GI50 (MCF7 breast)	TGI (MCF7 breast)	GI50 (MDA-MB-231 breast)	TGI (MDA-MB-231 breast)
COc1ccc(-c2nn3c(-c4cc(F)c(Cl)cc4Cl)nnc3s2)cc1	37.8 µM	> 100 µM	18.3 µM	> 100 µM	26.2 µM	> 100 µM	26.3 µM	> 100 µM	28.8 µM	> 100 µM	22 µM	62.1 µM	29.1 µM	83 µM	25.4 µM	60.1 µM	11.4 µM	> 100 µM	27.7 µM	> 100 µM
CN1CCC(n2cnc(-c3ccc(F)cc3)c2-c2ccnc(NCCO)n2)CC1	12.1 µM	> 25 µM	13.6 µM	> 25 µM	> 25 µM	> 25 µM	16.7 µM	> 25 µM	> 25 µM	> 25 µM	18.4 µM	> 25 µM	22.3 µM	> 25 µM	> 25 µM	> 25 µM	3.78 µM	> 25 µM	> 25 µM	> 25 µM
O=C1/C(=C\c2c[nH]c3ccccc23)c2ccccc2N1c1c(Cl)cccc1Cl	2.4 µM	10.1 µM	1.4 µM	3.23 µM	1.38 µM	2.75 µM	1.84 µM	3.69 µM	2.42 µM	7.23 µM	3.26 µM	11.2 µM	1.74 µM	3.28 µM	1.94 µM	3.65 µM	1.74 µM	3.76 µM	1.59 µM	3.21 µM
COc1ccc(/C(C#N)=C/c2ccccc2OC)cc1	32.1 µM	> 100 µM	17 µM	> 100 µM	19.9 µM	> 100 µM	5.04 µM	> 100 µM	3.34 µM	30.3 µM	25.2 µM	> 100 µM	27.7 µM	> 100 µM	4.68 µM	32.9 µM	4.3 µM	> 100 µM	7.02 µM	> 100 µM
CCCCCCCCCCCCCCCCN1CC2CCCCC2C1 (stereo not given)	15.7 µM	31.1 µM	6 µM	19.2 µM	12.5 µM	25.7 µM	5.15 µM	19.7 µM	2.43 µM	6.56 µM	4.18 µM	17.6 µM	3.85 µM	14.1 µM	12.1 µM	26.3 µM	9.57 µM	> 100 µM	4.01 µM	14 µM
COc1ccc(/C=C2\CCCC3=C2N=C2SC(C)=NN2C3c2ccc(OC)c(OC)c2)cc1OC (stereo not given)	4.2 µM	33.3 µM	5.99 µM	43.9 µM	19.8 µM	> 100 µM	8.41 µM	> 100 µM	2.91 µM	> 100 µM	6.31 µM	> 100 µM	10.7 µM	> 100 µM	22.2 µM	97.1 µM	3.04 µM	> 100 µM	25.1 µM	> 100 µM
Oc1cccc2ccc(N/N=C/c3cc(CN4CCCCC4)c(O)c4ncccc34)nc12	0.0344 µM	1.19 µM	0.0292 µM	1.71 µM	0.0456 µM	8.04 µM	0.0449 µM	1.85 µM	0.0558 µM	10.8 µM	0.0508 µM	2.06 µM	0.109 µM	3.18 µM	0.0288 µM	0.0814 µM	0.034 µM	1.28 µM	0.0991 µM	2.03 µM
O=C(NCCCCCCNC(=O)n1cc(F)c(=O)[nH]c1=O)NCCCOCCOCCOCCOCCOCCOCCOCCOCCOCCOCCOCCOCCOCCOCCOCCOCCOCCOCCOCCOCCOCCCNC(=O)C(O)C(O)C(O)C(O)CO (stereo not given)	–	> 100 µM	–	> 100 µM	–	> 100 µM	–	> 100 µM	–	> 100 µM	–	> 100 µM	–	> 100 µM	–	> 100 µM	–	> 62 µM	–	> 100 µM
CC#C[C@]1(O)CC[C@H]2[C@@H]3CCC4=CC(=O)CCC4=C3[C@@H](c3ccc4c(c3)OCO4)C[C@@]21C	47.4 µM	633 µM	49.6 µM	218 µM	120 µM	400 µM	112 µM	299 µM	103 µM	619 µM	141 µM	783 µM	138 µM	391 µM	111 µM	291 µM	77.2 µM	> 1000 µM	90.1 µM	327 µM
O=C(NCCO)Nc1ccc(-c2nc(N3CCOCC3)c3cccn3n2)cc1	0.0614 µM	> 100 µM	0.0573 µM	1.63 µM	0.122 µM	3.85 µM	0.579 µM	> 100 µM	2.98 µM	> 100 µM	0.257 µM	21.1 µM	0.232 µM	> 58.5 µM	0.256 µM	5.09 µM	0.0703 µM	> 100 µM	0.172 µM	14.6 µM
COc1ccc(OC)c(/C=C2\SC(=S)NC2=O)c1	26.7 µM	95.1 µM	33.6 µM	> 100 µM	30.9 µM	> 100 µM	58.7 µM	> 100 µM	42.4 µM	> 100 µM	30.5 µM	> 100 µM	20 µM	74.3 µM	80.6 µM	> 100 µM	23.5 µM	> 100 µM	14.2 µM	43.2 µM
